ChEMBL document CHEMBL1126120, “Synthesis and biological evaluation of dihydroeptastatin, a novel inhibitor of 3-hydroxy-3-methylglutaryl coenzyme A reductase” (J Med Chem, 1992)
pIC50: −log10 of the molar value.

What was measured:
HES = experiment: Concentration required to inhibit HMG-CoA reductase by 50% was determined in HES 9 cell line; format: functional, cell-based; conditions: Homo sapiens
[1] = biological target: T1, 3-hydroxy-3-methylglutaryl-coenzyme A reductase (Homo sapiens, UniProt P04035); experiment: Concentration required to inhibit HMG-CoA reductase by 50% was determined in Hep G2 cell line; format: functional, cell-based, HepG2
T1 sequence (P04035 whole entry): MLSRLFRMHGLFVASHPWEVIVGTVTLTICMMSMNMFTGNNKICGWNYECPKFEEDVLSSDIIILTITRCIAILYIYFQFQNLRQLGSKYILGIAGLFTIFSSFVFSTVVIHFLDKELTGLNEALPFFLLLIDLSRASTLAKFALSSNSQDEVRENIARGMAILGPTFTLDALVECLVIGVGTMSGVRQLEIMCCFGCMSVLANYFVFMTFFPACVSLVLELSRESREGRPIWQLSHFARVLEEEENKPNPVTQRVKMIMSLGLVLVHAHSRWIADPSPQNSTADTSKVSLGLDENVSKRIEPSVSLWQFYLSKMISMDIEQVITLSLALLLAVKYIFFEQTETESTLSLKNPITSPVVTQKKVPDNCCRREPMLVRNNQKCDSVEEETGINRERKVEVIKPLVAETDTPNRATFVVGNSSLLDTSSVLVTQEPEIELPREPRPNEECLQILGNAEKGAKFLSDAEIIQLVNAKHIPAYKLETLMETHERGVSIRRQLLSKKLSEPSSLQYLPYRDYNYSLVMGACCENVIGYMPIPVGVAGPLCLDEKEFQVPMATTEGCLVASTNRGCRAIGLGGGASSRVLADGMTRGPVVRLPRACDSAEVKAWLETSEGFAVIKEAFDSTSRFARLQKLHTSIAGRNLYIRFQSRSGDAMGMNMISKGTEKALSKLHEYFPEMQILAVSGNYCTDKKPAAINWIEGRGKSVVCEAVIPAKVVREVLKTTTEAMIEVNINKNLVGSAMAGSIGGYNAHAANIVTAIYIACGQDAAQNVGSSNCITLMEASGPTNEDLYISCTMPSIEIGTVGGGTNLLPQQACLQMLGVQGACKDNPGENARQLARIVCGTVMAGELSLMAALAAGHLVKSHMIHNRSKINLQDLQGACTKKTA

[2] = biological target: T2, 3-hydroxy-3-methylglutaryl-coenzyme A reductase (Rattus norvegicus, UniProt P51639); experiment: Inhibitory activity against HMG-CoA reductase from rat liver microsomal preparation
T2 sequence (P51639 whole entry): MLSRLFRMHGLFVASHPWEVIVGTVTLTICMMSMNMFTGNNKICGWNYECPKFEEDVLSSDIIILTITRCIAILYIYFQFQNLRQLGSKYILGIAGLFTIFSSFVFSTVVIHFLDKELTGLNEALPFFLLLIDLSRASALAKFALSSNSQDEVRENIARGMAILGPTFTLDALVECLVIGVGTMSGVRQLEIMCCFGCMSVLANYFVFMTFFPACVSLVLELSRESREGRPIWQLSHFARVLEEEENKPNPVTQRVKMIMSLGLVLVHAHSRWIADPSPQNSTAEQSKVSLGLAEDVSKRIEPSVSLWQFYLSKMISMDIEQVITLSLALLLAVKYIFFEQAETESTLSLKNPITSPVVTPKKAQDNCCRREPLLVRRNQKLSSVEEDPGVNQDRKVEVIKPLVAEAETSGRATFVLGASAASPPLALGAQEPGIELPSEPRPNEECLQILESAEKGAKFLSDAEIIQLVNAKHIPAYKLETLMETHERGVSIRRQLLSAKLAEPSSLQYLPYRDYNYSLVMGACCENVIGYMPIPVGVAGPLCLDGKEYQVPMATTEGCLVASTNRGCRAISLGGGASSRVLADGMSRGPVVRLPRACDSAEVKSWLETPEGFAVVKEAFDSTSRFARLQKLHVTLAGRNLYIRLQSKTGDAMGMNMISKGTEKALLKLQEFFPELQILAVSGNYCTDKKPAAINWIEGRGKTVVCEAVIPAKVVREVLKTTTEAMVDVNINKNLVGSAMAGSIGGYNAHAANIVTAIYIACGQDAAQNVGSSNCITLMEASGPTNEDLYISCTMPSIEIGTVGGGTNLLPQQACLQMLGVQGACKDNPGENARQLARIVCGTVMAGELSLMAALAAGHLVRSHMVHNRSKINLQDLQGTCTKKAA

| pIC50 (HES) | pIC50 [1] | pIC50 [2] | SMILES |
| --- | --- | --- | --- |
| 5.14 | 5.65 | 7.85 | CC[C@H](C)C(=O)O[C@H]1C[C@H](O)C[C@@H]2C=C[C@H](C)[C@H](CC[C@H](O)C[C@H](O)CC(=O)O)[C@@H]12 |
| 5.15 | 5.85 |  | CC[C@H](C)C(=O)O[C@H]1C[C@H](O)C[C@@H]2C=C[C@H](C)[C@H](CCC3C[C@@H](O)CC(=O)O3)[C@@H]12 (stereo not given in full) |
| 8.19 | 7.92 |  | CCC(C)(C)C(=O)O[C@H]1C[C@@H](C)C=C2C=C[C@H](C)[C@H](CC[C@@H](O)C[C@@H](O)CC(=O)O)[C@H]21 |
| 7.89 |  |  | CC[C@H](C)C(=O)O[C@H]1C[C@@H](C)C=C2C=C[C@H](C)[C@H](CC[C@@H]3C[C@@H](O)CC(=O)O3)[C@H]21 [LOVASTATIN] |
| 7.77 | 7.54 |  | CC[C@H](C)C(=O)O[C@H]1C[C@@H](C)C=C2C=C[C@H](C)[C@H](CC[C@@H](O)C[C@@H](O)CC(=O)O)[C@H]21 |
